Assay results: patent US12404261B2, “Compounds and compositions for treating conditions associated with cGAS” (Novartis AG, priority 2020, dated 2025)

Target: human truncated cGAS enzyme (147-522 human cGAS) (Homo sapiens (Human), UniProt Q8N884)
Assay: Quantification of cGAS protein inhibition (cGAMP formation measured by LC-MS/MS)
Type: biochemical
Conditions: reported for the potential mixture of co-existing tautomers and/or racemates
Procedure: A reagent buffer was prepared in filtered and autoclaved water according to the following: • 50 mM Tris-buffer pH 7.5 (1 M Tris-buffer pH 7.5, Invitrogen, Cat. No. 15567-027); • 50 mM NaCl (5 M NaCl, Sodium Chloride Solution, Sigma, 59222C-); • 5 mM MgCl2 (1 M MgCl2, Sigma, M1028); • 0.1 mM ZnCl2 (Zinc Chloride [7646-85-7], powder, Cell Culture Tested, Sigma, Z-0152); and • 0.001% Tween 20 (TWEEN 20, Sigma Aldrich, P1379-).
A buffer for the cGAS enzyme was prepared in filtered and autoclaved water according to the following: • 50 mM Tris-buffer pH 7.5; • 5 mM MgCl2; and • 0.001% Tween 20.
Compounds were dispensed to a […]. The human truncated cGAS enzyme (4.2 mg/mL 147-522 human cGAS, MW 43,909 g/mol) was stored in 50 mM Tris, 500 mM NaCl, 5% (v/v) glycerol at pH 8 and diluted in the cGAS buffer enzyme shortly before use. The enzyme solution was transferred into the reagent buffer to give a final concentration of 30 nM. The reaction was started by mixing the enzyme with ISD (a 45 bp double stranded DNA, MW 27,670 g/mol, 5 mM), GTP and ATP to a final concentration of 5 μM, 0.5 mM and 0.5 mM respectively in a final volume of 10 μl. The reaction plates were then centrifuged at 1000 rpm for 1 minute and incubated at room temperature for 1 h. After 1 h of incubation, [^5Ns]-2′3′-cGAMP to a final concentration of 200 nM and 30 μL of 100% acetonitrile/0.175% of TFA were added to the reaction mixture. The plates were centrifuged at 1000 rpm for 1 minute before being sealed for 3 seconds at 170° C. using a ThermoScientific sealer (ALPS™ 50V) and an aluminum sealing cover (Pierce Seal, 4titude, Product Code: 4TI-0531).
The concentration of cGAMP was measured on a LC-MS/MS system consisting of a THERMO Dionex Ultimate LC system with a high pressure pump, an autosampler, a column heating compartment (Reinach, Switzerland) and a SCIEX Triple Quad 5500 (Framingham, MA, USA) mass spectrometer for detection. The sample plates were centrifuged for 10 minutes at 2000 rpm. Up to three plates were placed in the autosampler for injection. An aliquot of 10 μL of each sample was injected on an XBridge BEH Amide 3.5 μm, 2.1×50 mm column (P/N 186004859) with an XBridge BEH Amide 5 μm 2.1×5 mm VanGuard Cartridge (P/N 186007760) pre-column (both WATERS, MA, USA) held at 40° C. An isocratic flow of 1.0 mL/min solvent (60% ACN, 8 mM ammonium acetate, 5 mM ammonium hydroxide, 0.04% acetic acid) was applied and sprayed into the ion source of the mass spectrometers. The MS parameters were optimized based on the properties of the compounds to be detected and run in positive multi-reaction mode (MRM) based on the mass transitions. LC and MS parameters were also optimized to allow for a sample-to-sample measuring time of approximately 75 sec and a run time of 8 hours per 384-well plate. All data were analyzed with Excel; and the dose response curves were generated using the auto fitting function of XLfit. The IC50 was determined by plotting the cGAMP concentration ratio (cGAMP divided by the internal standard [^15Ns]-2′3′-cGAMP) versus the concentration of compound.

Chain of human truncated cGAS enzyme (147-522 human cGAS) (Q8N884 147-522): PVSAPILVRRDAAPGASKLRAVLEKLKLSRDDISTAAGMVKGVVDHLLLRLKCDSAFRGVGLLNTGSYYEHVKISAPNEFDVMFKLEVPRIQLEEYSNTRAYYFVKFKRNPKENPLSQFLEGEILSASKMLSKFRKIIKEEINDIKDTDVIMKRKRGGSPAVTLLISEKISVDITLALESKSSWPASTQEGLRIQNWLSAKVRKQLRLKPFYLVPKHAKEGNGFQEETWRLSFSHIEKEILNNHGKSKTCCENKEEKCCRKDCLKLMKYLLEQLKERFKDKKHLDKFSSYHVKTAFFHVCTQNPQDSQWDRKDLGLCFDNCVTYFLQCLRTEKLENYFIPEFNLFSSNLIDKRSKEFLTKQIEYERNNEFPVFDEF

Question: COCC(F)(F)c1nnc(-c2c(-n3ccnc3)c3cc(OC)c(Cl)c(C#N)c3n2C)[nH]1 [Example 55, 6-chloro-2-(5-(1,1-difluoro-2-methoxyethyl)-4H-1,2,4-triazol-3-yl)-3-(1H-imidazol-1-yl)-5-methoxy-1-methyl-1H-indole-7-carbonitrile] was tested. Which IC50 did it give?
Answer: The IC50 was 0.055 µM.

Question: COc1cc2c(-n3ccnc3)c(-c3nnc(CS(C)(=O)=O)[nH]3)n(C)c2c(F)c1Cl [Example 56, 6-Chloro-7-fluoro-3-(1H-imidazol-1-yl)-5-methoxy-1-methyl-2-(5-((methylsulfonyl)methyl)-4H-1,2,4-triazol-3-yl)-1H-indole] was tested. Which IC50 did it give?
Answer: The IC50 was 0.056 µM.

Question: Which IC50 does the source give for COCC(=O)c1nnc(-c2[nH]c3c(F)c(Cl)c(OC)cc3c2-c2cn[nH]c2)[nH]1 [Example 57, 1-(5-(6-chloro-7-fluoro-5-methoxy-3-(1H-pyrazol-4-yl)-1H-indol-2-yl)-4H-1,2,4-triazol-3-yl)-2-methoxyethan-1-one] here?
Answer: Its IC50 is 0.03 µM.

Question: For COc1cc2c(-c3cn[nH]c3)c(-c3nnc(F)[nH]3)n(C)c2c(F)c1Cl [Example 58, 6-chloro-7-fluoro-2-(5-fluoro-4H-1,2,4-triazol-3-yl)-5-methoxy-1-methyl-3-(1H-pyrazol-4-yl)-1H-indole], which IC50 is on record?
Answer: The IC50 was 0.03 µM.

Question: How did the IC50 turn out when COc1cc2c(-c3cn[nH]c3)c(-c3nnc(N4CCOCC4)[nH]3)n(C)c2c(F)c1Cl [Example 59, 4-(5-(6-chloro-7-fluoro-5-methoxy-1-methyl-3-(1H-pyrazol-4-yl)-1H-indol-2-yl)-4H-1,2,4-triazol-3-yl)morpholine] was run?
Answer: Its IC50 is 0.078 µM.

Question: How did the IC50 turn out when COc1cc2c(-c3cn[nH]c3)c(-c3nnc(C(C)=O)[nH]3)n(C)c2c(F)c1Cl [Example 60, 1-(5-(6-chloro-7-fluoro-5-methoxy-1-methyl-3-(1H-pyrazol-4-yl)-1H-indol-2-yl)-4H-1,2,4-triazol-3-yl)ethan-1-one] was run?
Answer: The IC50 was 0.032 µM.

Question: For COc1cc2c(-c3cn[nH]c3)c(-c3nnc(N(C)C(C)=O)[nH]3)n(C)c2c(F)c1Cl [Example 61, N-(5-(6-chloro-7-fluoro-5-methoxy-1-methyl-3-(1H-pyrazol-4-yl)-1H-indol-2-yl)-4H-1,2,4-triazol-3-yl)-N-methylacetamide], which IC50 is on record?
Answer: The IC50 was 0.041 µM.

Question: How did the IC50 turn out when COCC(=O)N(C)c1nnc(-c2c(-c3cn[nH]c3)c3cc(OC)c(Cl)c(F)c3n2C)[nH]1 [Example 62, N-(5-(6-chloro-7-fluoro-5-methoxy-1-methyl-3-(1H-pyrazol-4-yl)-1H-indo1-2-yl)-4H-1,2,4-triazol-3-yl)-2-methoxy-N-methylacetamide] was run?
Answer: Its IC50 is 0.06 µM.

Question: Which IC50 does the source give for COc1cc2c(-c3cn[nH]c3)c(-c3nnc(N(C)CCO)[nH]3)n(C)c2c(F)c1Cl [Example 63, 2-((5-(6-chloro-7-fluoro-5-methoxy-l-methyl-3-(1H-pyrazol-4-yl)-1H-indol-2-yl)-4H-1,2,4-triazol-3-yl)(methyl)amino)ethan-1-ol] here?
Answer: The IC50 was 0.054 µM.

Question: Which IC50 does the source give for COCC(O)c1nnc(-c2c(-c3cn[nH]c3)c3cc(OC)c(Cl)c(F)c3n2C)[nH]1 (stereo not shown) [Example 64, 1-(5-(6-chloro-7-fluoro-5-methoxy-1-methyl-3-(1H-pyrazol-4-yl)-1H-indol-2-yl)-4H-1,2,4-triazol-3-yl)-2-methoxyethan-1-ol] here?
Answer: Its IC50 is 0.052 µM.

Question: How did the IC50 turn out when COCC(F)(F)c1nnc(-c2[nH]c3c(F)c(Cl)c(OC)cc3c2-c2cn[nH]c2)[nH]1 [Example 65, 6-chloro-2-(5-(1,1-difluoro-2-methoxyethyl)-4H-1,2,4-triazol-3-yl)-7-fluoro-5-methoxy-3-(1H-pyrazol-4-yl)-1H-indole] was run?
Answer: Its IC50 is 0.031 µM.

Question: For COCC(F)(F)c1nnc(-c2c(-c3cn[nH]c3)c3cc(OC)c(Cl)c(F)c3n2C)[nH]1 [Example 66, 6-chloro-2-(5-(1,1-difluoro-2-methoxyethyl)-4H-1,2,4-triazol-3-yl)-7-fluoro-5-methoxy-1-methyl-3-(1H-pyrazol-4-yl)-1H-indole], which IC50 is on record?
Answer: The IC50 was 0.03 µM.

Question: COc1cc2c(-c3cn[nH]c3)c(-c3nnc(C(C)(F)F)[nH]3)[nH]c2c(F)c1Cl [Example 67, 6-chloro-2-(5-(1,1-difluoroethyl)-4H-1,2,4-triazol-3-yl)-7-fluoro-5-methoxy-3-(1H-pyrazol-4-yl)-1H-indole] was tested. Which IC50 did it give?
Answer: Its IC50 is 0.03 µM.

Question: Which IC50 does the source give for COc1cc2c(-c3cn[nH]c3)c(-c3nnc(C(C)(F)F)[nH]3)n(C)c2c(F)c1Cl [Example 68, 6-chloro-2-(5-(1,1-difluoroethyl)-4H-1,2,4-triazol-3-yl)-7-fluoro-5-methoxy-1-methyl-3-(1H-pyrazol-4-yl)-1H-indole] here?
Answer: The IC50 was 0.033 µM.

Question: Which IC50 does the source give for COc1cc2c(-c3cn[nH]c3)c(-c3nnc(C(F)(F)CO)[nH]3)n(C)c2c(F)c1Cl [Example 69, 2-(5-(6-chloro-7-fluoro-5-methoxy-1-methyl-3-(1H-pyrazol-4-yl)-1H-indol-2-yl)-4H-1,2,4-triazol-3-yl)-2,2-difluoroethan-1-ol] here?
Answer: The IC50 was 0.038 µM.

Question: How did the IC50 turn out when COCC(F)c1nnc(-c2c(-c3cn[nH]c3)c3cc(OC)c(Cl)c(F)c3n2C)[nH]1 (stereo not shown) [Example 70, 6-chloro-7-fluoro-2-(5-(1-fluoro-2-methoxyethyl)-4H-1,2,4-triazol-3-yl)-5-methoxy-1-methyl-3-(1H-pyrazol-4-yl)-1H-indole] was run?
Answer: Its IC50 is 0.039 µM.

Question: COc1cc2c(-c3cn[nH]c3)c(-c3nnc(C(C)F)[nH]3)[nH]c2c(F)c1Cl (stereo not shown) [Example 71, 6-chloro-7-fluoro-2-(5-(1-fluoroethyl)-4H-1,2,4-triazol-3-yl)-5-methoxy-3-(1H-pyrazol-4-yl)-1H-indole] was tested. Which IC50 did it give?
Answer: Its IC50 is 0.044 µM.

Question: With COc1cc2c(-c3cn[nH]c3)c(-c3nnc(C(C)F)[nH]3)n(C)c2c(F)c1Cl (stereo not shown) [Example 72, 6-chloro-7-fluoro-2-(5-(1-fluoroethyl)-4H-1,2,4-triazol-3-yl)-5-methoxy-1-methyl-3-(1H-pyrazol-4-yl)-1H-indole] as the compound, how does the IC50 read?
Answer: The IC50 was 0.061 µM.

Question: COCC(F)(F)c1nnc(-c2c(-c3cn[nH]c3)c3cc(OC)c(Cl)c(C#N)c3n2C)[nH]1 [Example 73, 6-chloro-2-(5-(1,1-difluoro-2-methoxyethyl)-4H-1,2,4-triazol-3-yl)-5-methoxy-1-methyl-3-(1H-pyrazol-4-yl)-1H-indole-7-carbonitrile] was tested. Which IC50 did it give?
Answer: The IC50 was 0.03 µM.

Question: CCOc1cc2c(-c3cn[nH]c3)c(-c3nnc(C(C)=O)[nH]3)n(C)c2c(F)c1Cl [Example 74, 1-(5-(6-chloro-5-ethoxy-7-fluoro-1-methyl-3-(1H-pyrazol-4-yl)-1H-indo1-2-yl)-4H-1,2,4-triazol-3-yl)ethan-1-one] was tested. Which IC50 did it give?
Answer: The IC50 was 0.21 µM.

Question: How did the IC50 turn out when Oc1cc(-c2c(-c3nnc(C(F)(F)F)[nH]3)[nH]c3c(Cl)c(Cl)ccc23)n[nH]1 [Example 76, 3-(6,7-dichloro-2-(5-(trifluoromethyl)-4H-1,2,4-triazol-3-yl)-1H-indol-3-yl)-1H-pyrazol-5-ol] was run?
Answer: Its IC50 is 4.21 µM.

Question: How did the IC50 turn out when Oc1cc(-c2c(-c3nnc(C(F)(F)F)[nH]3)[nH]c3c(Cl)c(Cl)ccc23)no1 [Example 77, 3-(6,7-dichloro-2-(5-(trifluoromethyl)-4H-1,2,4-triazol-3-yl)-1H-indol-3-yl)isoxazol-5-ol] was run?
Answer: The IC50 was 1.85 µM.

Question: Which IC50 does the source give for FC(F)(F)c1nnc(-c2[nH]c3c(Cl)c(Cl)ccc3c2-c2cc[nH]n2)[nH]1 [Example 78, 6,7-dichloro-3-(1H-pyrazol-3-yl)-2-(5-(trifluoromethyl)-4H-1,2,4-triazol-3-yl)-1H-indole] here?
Answer: The IC50 was 3.69 µM.

Question: COc1cc2c(-c3cn[nH]c3)c(-c3nnc(C(C)N(C)C)[nH]3)n(C)c2c(F)c1Cl (stereo not shown) [Example 80, 1-(5-(6-chloro-7-fluoro-5-methoxy-1-methyl-3-(1H-pyrazol-4-yl)-1H-indol-2-yl)-4H-1,2,4-triazol-3-yl)-N,N-dimethylethan-1-amine] was tested. Which IC50 did it give?
Answer: The IC50 was 0.039 µM.

Question: Which IC50 does the source give for COCC(c1nnc(-c2c(-c3cn[nH]c3)c3cc(OC)c(Cl)c(F)c3n2C)[nH]1)N(C)C (stereo not shown) [Example 81, 1-(5-(6-chloro-7-fluoro-5-methoxy-1-methyl-3-(1H-pyrazol-4-yl)-1H-indol-2-yl)-4H-1,2,4-triazol-3-yl)-2-methoxy-N,N-dimethylethan-1-amine] here?
Answer: Its IC50 is 0.091 µM.
